The results in this text go back to paper PMC11484808, “Streamlined analysis of drug targets by proteome integral solubility alteration indicates organ-specific engagement” (Nature Communications, 2024).

The target in the assay is T1, Pirin (Homo sapiens, UniProt O00625).
T1 construct: gene PIR; recombinant human pirin (Abcam, ab123170)
T1 sequence (O00625 1-290): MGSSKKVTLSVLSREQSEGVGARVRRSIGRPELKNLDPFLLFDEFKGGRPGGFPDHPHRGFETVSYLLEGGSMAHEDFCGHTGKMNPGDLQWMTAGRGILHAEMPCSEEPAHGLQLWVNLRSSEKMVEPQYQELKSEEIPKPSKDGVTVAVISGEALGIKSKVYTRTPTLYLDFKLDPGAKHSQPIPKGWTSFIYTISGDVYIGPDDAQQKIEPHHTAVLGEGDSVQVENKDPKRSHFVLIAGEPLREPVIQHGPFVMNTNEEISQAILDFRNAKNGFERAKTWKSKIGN
Description: SPR (Biacore T200), steady state; also TPP-PISA stabilization in extracts. It is filed as binding. In general terms: SPR reads the build-up and loss of mass on a sensor chip optically.

Structures are written as SMILES.

With `CC(C)Cc1ccc(C(C)C(=O)O)cc1` (stereo not shown) [Ibuprofen], the Kd was around 546 µM.

The term Kd denotes the concentration at which binding is half-saturated. A higher Kd goes with a looser complex.
